From patent publication US20060100180A1, “Composition containing an androgenous 11b-halogen steroid and a progestational hormone, and male contraceptive based on said composition” (priority 2002, published 2006)

Legend:
[1] = cited from earlier work
[2] = effectiveness compared with testosterone; settings: more effective than testosterone

In the case of `C[C@@H]1CC2=CC(=O)CC[C@@H]2[C@H]2CC[C@]3(C)[C@@H](O)CC[C@H]3[C@@H]21` [7α-methyl-19-nortestosterone], the “biological effectiveness compared with testosterone” value [1] is listed as “higher biological effectiveness than testosterone”.

With `C[C@@H]1CC2=CC(=O)CC[C@@H]2[C@@H]2[C@@H]1[C@@H]1CC[C@H](O)[C@@]1(C)C[C@@H]2F` [Compound A, 11β-fluoro-17β-hydroxy-7α-methyl-estr-4-en-3-one] the “effectiveness relative to testosterone” value [2] was “about 10 ×”.
